Experimental findings from patent US8846747B2, “Compounds and methods for altering lifespan of eukaryotic organisms” (University of Rochester, priority 2009, dated 2014) are described below.

Data set [1] concerns strain FY839 (healthy wild-type). Description: Toxicity of compounds by yeast growth assay. The class given is cell-based. Conditions: FY839, inset in FIG. 2. Here is the method: The toxicity of compounds C1-1, C1-2, C1-3, C1-4, and C1-5 in yeast was assessed by determining their effects on growth of a wild-type yeast strain. FIG. 2 is a graphical representation of the toxicity data. The yeast used was strain FY839 (healthy wild-type) growing in SCD. At 12 hours all were in log phase. […] This concentration is many-fold higher than the effective concentrations of these compounds as assessed by DeaD lifespan assays.

The test system of a further data set is TNF-α-treated mice. Description: TNF-α-induced vascular inflammation in mice (leukocyte rolling in mesenteric vessels). It counts as in vivo, mouse. Conditions: ip 6 mg/kg once (1 hour) or twice (24 hours and 1 hour) prior to TNF-α; compared to TNF-α-treated control mice; FIG. 5. The protocol: FIG. 5. Graphical results showing in vivo reduction of TNF-α-induced vascular inflammation in mice. To obtain the data summarized in FIG. 5, mice (3 each group) were injected with vehicle or Cob 1-2 (ip, 6 mg/kg in DMSO). Two treatments were used: i) 1 dose an hour before TNFa and, ii) 2 doses (24 hrs and 1 hr before TNFa ). TNFa was administered ip (20 ug/kg). 3 hours post TNFa administration, mice were anesthetized, their mesentery was exposed and placed on an inverted fluorescent microscope stage. Lymphocyte velocities within veins was determined by analyzing video recordings
In vivo reduction of TNF-α-induced vascular inflammation in mice: The affects of drugs on vascular inflammation can be assessed by quantifying the rates of leukocytes rolling in mouse mesenteric vessels following intraperitoneal administration of TNF-α (Craig N. Morrell, Kenji Matsushita, and Charles J. Lowenstein. A Novel Inhibitor of N-Ethylmaleimide-Sensitive Factor Decreases Leukocyte Trafficking and Peritonitis. JPET 2005; 314:155-161). Vascular inflammation was induced in two groups of mice that were treated with C1-2 either once (1 hour) or twice (24 hours and 1 hour) prior to TNF-α administration.

Another data set concerns DeaD strain BB579. Description: yeast Death of Daughters (DeaD) lifespan assay, reversal of nicotinamide (NAM) lifespan shortening. The class given is cell-based, S. cerevisiae (yeast). The note with it: Saccharomyces cerevisiae, BB579, read-out: C50 (concentration that yields half the maximal activity) by DeaD assay. The protocol: The C50 (50% maximal activity) is a measure of the efficacy of a compound as a LAC and is determined by quantifying the dose-response curve for each LAC by DeaD assay in the presence and absence of nicotinamide. The C50 is the concentration of LAC that yields half the maximal activity. Dose response curves will generally peak and then decline. The decline is most likely due to toxicity at higher LAC concentrations. The C50 is determined relative to the maximal lifespan extension (the peak value). C50 values are provided for C1-5.
The compounds listed in Table 1 of Example 3 were assessed for their anti-aging activities using the yeast Death of Daughters (DeaD) explicative lifespan assay. Specifically, the compounds were assessed for their capacity to reverse the lifespan shortening effect of exogenous nicotinamide (NAM), which is a known inhibitor of the anti-aging protein Sir2p (Anderson et al., 2003; Bitterman et al., 2002). These compounds were compared to the activities of known cluster 1 compounds, S3-5, and #3-11.
“Activity” here is defined herein as the fold improvement in DeaD lifespan in the presence of 0.75 mM NAM relative to lifespan in the absence of cluster 1 compounds, over a range of compound concentrations between 0.5 nm-1 μm. This “activity” value is a means of assessing the usefulness of a compound as a LAC. The assays were performed as follows. DeaD strain BB579 was grown overnight in a permissive (galactose-containing) medium to mid-log phase, and then diluted to an OD600 of 0.0001 in restrictive (glucose-containing) medium with 0.75 mM NAM and the compound to be tested. Cells were then incubated at 30° C. for 3 days, with shaking and OD600 measurement every 20 minutes. The OD600 reading after 60 hours in restrictive medium, normalized to the same measurement for the “no drug” control, was used as the number for comparison.
Five of the compounds with higher activity than S3-5 were selected for further study and were designated C1-1, C1-2, C1-3, C1-4, and C1-5 (see Table 2, Example 4). All data in FIGS. 1A(1)-(6) are from media containing 0.75 mM NAM. Note the different ranges of the X axes in FIGS. 1A(1)-(6)—very different C50 values for the compounds of the present invention compared the known C1 cluster compounds. […] All five had C50 values below 50 nM, while the C50 value for S3-5 was about 650 nM, and the C50 for S1-9 was about 350 nM.

The test system of data set [2] is mice exposed to cigarette smoke. Description: cigarette smoke-induced inflammation of mouse lungs. It counts as in vivo. Conditions: ip 5 mg/kg. The protocol:
FIG. 4. […] To obtain the data summarized in FIG. 4, Mice were exposed to cigarette smoke or filtered air for 3 consecutive days. They were treated ip with vehicle or Cob 1-2 (5 mg/kg) in DMSO: 1 group was treated daily during smoke exposure period and 1 group was pre-treated with 2 doses per week during the week prior to the smoke exposure and daily during the smoke exposure. On day 4, mice were sacrificed. Their lungs were washed and BAL fluid was stained for Europhiles count. The lungs were homogenized for ELISA quantifying MCP-1 levels.
In vivo prevention of cigarette smoke-induced inflammation of mouse lungs: Exposing mice to cigarette smoke induces an acute inflammatory response in the lungs. Cigarette smoke-induced inflammation in the lungs was assessed by quantifying the ratio of macrophages to Europhiles in bronchoalveolar lavage fluid (BALF), and levels of pro-inflammatory markers such as MCP-1 in lung tissue (Yao H, Edirisinghe I, Rajendrasozhan S, Yang S R, Caito S, Adenuga D, Rahman I. Cigarette smoke-mediated inflammatory and oxidative responses are strain-dependent in mice. Am. J. Physiol Lung Cell Mol Physiol 2008; 294: L1174-L1186.).

Another data set deals with RAW 264.7 cells. Description: LPS-induced TNF-α secretion from RAW 264.7 cells (ELISA). The class given is cell-based, murine. The note with it: compound 1 micromolar, LPS 10 ng/ml for 6 hrs; FIG. 3. The protocol:
FIG. 3. […] To obtain the data summarized in FIG. 3, RAW […] cells were incubated with Scrims (compounds of present invention) (1 uM), PI3K inhibitor positive control (LY-294002; 25 uM) or vehicle (DMSO) for 1 hr. LPS (10 ng/ml) was added to the medium. 6 hrs post LPS administration medium was collected and analyzed for TNFa levels using ELISA.
In vitro anti-inflammatory activity in RAW 264.7 cells (murine leukaemic monocyte macrophage cell line): Lipopolysaccharide (LPS)-induced secretion of cytokines from RAW cells is a recognized in vitro assay for anti-inflammatory drugs. The anti-inflammatory activities of C1-1, C1-2, C1-3, C1-4, and C1-5 in the RAW cell model. RAW cells exposed to LPS were incubated with each of the five molecules at 1 micromolar concentration. The PIK3 inhibitor LY-294002 was used at 25 micromolar as a positive control. […] LPS was administered at 10 ng/ml for 6-hrs. TNF-α levels were quantified by ELISA assay. Results are presented as % of control with standard deviations of three replicates.

Where only a bound is given, the exact number is not on record here.

Regarding `CCC(=O)C1C(=O)CC(c2ccc(F)cc2)CC1=O` (stereo not drawn) [SRI# 22790, 1,3-cyclohexanedione, 2-propanoyl-5-[4-fluorophenyl]-], the “toxic effects on growth at concentrations below 1 μM” value (“toxic effects on growth” for short) in data set [1] is reported as “little or no toxic effects on growth”. Also, the “leukocytes velocity in mesenteric vessels” value in the data set with TNF-α-treated mice is “significantly increased leukocytes velocity”. In addition, the EC50 in the data set on DeaD strain BB579 is less than 50 nM. In addition, the “total Europhiles count in BAL fluid” value in data set [2] (3 days smoke exposure, FIG. 4A) is listed as “lowered total Europhiles count to near background levels”. The “MCP-1 levels in lungs” value in data set [2] (lung homogenate ELISA, FIG. 4B) is given as “decreased in a statistically significant fashion”. In addition, the “reduction of secreted TNF-α relative to vehicle treated cells” value in the data set with RAW 264.7 cells is reported as “exhibited anti-inflammatory activity”.

On to `CC(=O)C1C(=O)CC(c2cccs2)CC1=O` (stereo not drawn) [SRI# 22933, 1,3-cyclohexanedione, 2-acetyl 5-[thien-2-yl]-], for which, in data set [1], the “toxic effects on growth” value is reported as “little or no toxic effects on growth”. Also, in the data set on DeaD strain BB579, the EC50 is less than 50 nM. Further, the “reduction of secreted TNF-α relative to vehicle treated cells” value in the data set on RAW 264.7 cells was “exhibited anti-inflammatory activity”.

Take `CCCCC1CC(=O)C(C(C)=O)C(=O)C1` (stereo not drawn) [SRI# 22942, 1,3-cyclohexanedione, 2-acetyl-5-butyl-]: the “toxic effects on growth” value in data set [1] is “little or no toxic effects on growth”. In addition, the EC50 with DeaD strain BB579 was less than 50 nM. Besides, the “reduction of secreted TNF-α relative to vehicle treated cells” value in the data set on RAW 264.7 cells is listed as “exhibited anti-inflammatory activity”.
